From patent US10556860B2, “hTERT modulators and methods of use” (Arizona Board of Regents on Behalf of the University of …, priority 2015, dated 2020)
Entries after “also recorded” stand apart in the source; their conditions may differ.

Key:
[1] = system: normal human melanocytes (NHM-002); test: Viability of normal human melanocytes; type: cell-based; details: 1.25, 2.5 and 5 μM, 72 h
Protocol: FIGS. 13A-13C are a set of graphs showingselective reduction in viability (A) and hTERT expression (B) in melanoma cells carrying hTERT core promotor mutations. NHM-002 (normal human melanocytes) and a G124A mutant cell line were treated with vehicle, 1.25, 2.5, and 5 μM GTC365 for 72 h. Viability was reduced in hTERT mutant melanoma cells by 50% (left). […] (C) Differential response to GTC365 in WT and promoter mutant cell lines.
Next, to assess the selectivity of GTC365 for hTERT-dependent cancer cells relative to normal precursorcells, we compared the effects of a range of […] on viability at 72 h in normal humanmelanocytes (NHM-002) relative to those of UACC-903, aG124A mutant (FIG. 13A). […] To confirm that the reduction in cell viability was aresult of hTERT downregulation, we performed reverse transcription and qPCR to measure the mRNA level of hTERT expression in cells treated with DMSO or 5 μMGTC365. hTERT expression was reduced by 41% in themelanoma cell line after 72 h but was undetectable in normalmelanocytes, even in the absence of GTC365 (FIG. 13B). Finally, tobroadly assess the selectivity of GTC365 for hTERT promotermutant versus WT cells, we conducted a 6-point 72 h MTSproliferation assay to determine EC50s in 14 additional melanoma cell lines with characterized TERT promoter status([…]) (FIG. 13C). […]

G124A 5-12 G-quadruplex = test: CD kinetics, temperature-jump, G124A; type: biochemical, human; details: 2 equiv
Protocol: FIGS. 10A and 10B are a set of graphs showing (A) comparison of kinetics of initial folding rate of the WT 5-12 G-quadruplex with GTC365 and BRACO-19 by the temperature-jump method. (B) Enhanced initial folding rate of the 5-12 G-quadruplexes carrying different hTERT mutants by GTC365. The time-course CD signal of preheated oligo with compound or DMSO in a buffer containing 10 mM Tris-HCl (pH 7.5) and 5 mM KCl was monitored at 262 nm and 25° C.
For the kinetics analysis using the temperature-jump method, theoligo in a buffer containing 10 mM Tris-HCl (pH 7.5) was heated forl min at 95° C., and then a mixture of KCl and compound was addedand incubated for 1 min. Meanwhile, the CD cuvette was also heatedat 95° C. As soon as the sample in the CD cuvette at the hightemperature was placed in the CD chamber, a time-dependent CDsignal at 262 nm was recorded immediately. The initial folding ratewas determined by one-phase association curve fitting (eq 1) of thekinetics curve using GraphPad Prism 5: Y=Y0+(Plateau−Y0)*(1−e^−kx) (1) where Y is the CD signal at any time point x, Y0 is the Y value whentime (x) is zero, plateau is the Y value at infinite time, and k is the rateconstant.
To evaluate the comparative effects of GTC365 relative to BRACO-19 on the cooperative folding process, we carried out two different experiments. […]

[2] = system: i-motif formed from the full-length C-rich strand of hTERT promoter; test: CD melting (Tm), i-motif; type: binding, human; details: pH 6.6
Protocol: Circular dichroism. Oligomers of WT, G124A, G124/125A, G138/139A and G146A were synthesized and HPSF-purified by MGW Operon, Inc. For CD analysis, oligomers (5 μM) in a buffer containing 10 mM Tris-HCl (pH 7.5) and 140 mM KCl were annealed. For the CD analysis of the complex of oligomers and compounds, oligomers (5 μM) in a buffer containing 10 mM Tris-HCl (pH 7.5) and 5 mM KCl for GTC365 or 1 mM KCl for BRACO-19 were annealed. Oligomers and GTC365 or BRACO-19 were incubated overnight at room temperature. For the full-length of C-rich strand, the oligomer in a buffer of 10 mM Na cacodylate (pH 6.6) was annealed and then incubated with GTC365 overnight. CD analysis was conducted on a Jasco 810 spectropolarimeter (Jasco, Easton, Md.) using a quartz cell with 1 mm of path length, 1 nm of band width, and 1 s of response time for spectra at 20° C. Melting curves for the determination of Tm were obtained by recording ellipticity at 262 nm with increasing temperatures from 25° C. to 95° C. at a rate of 1.6° C./min. Tm of the C-rich strand with GTC365 was obtained from the CD signal at 286 nm within 10-60° C.
In contrast, BRACO-19 increased the Tm of telomeric G-quadruplex by ˜60% compared to that of the hTERT G-quadruplex at 0.5 and 1 equiv. A summary of the comparative Tms of GTC365 and BRACO-19 in hTERT and telomeric DNA is shown below.

BAX/BCL2 mRNA ratio = test: BAX/BCL2 ratio in MCF7 cells; type: cell-based, human; details: 0.5-1 μM, 72 h, relative to DMSO
Protocol: FIG. 11 is a graph showingincrease of BAX/BCL2 ratios by GTC365 in mRNA levels. MCF7 cells were treated with GTC365 for 72 h and then subjected to qPCR and immunoblot analysis. The relative ratio of BAX/BCL2 was determined compared with a DMSO-treated sample.
Indeed at 0.5-1 μM, the BAX/BCL2 ratio was increased by over 2-fold and the capase-3 activity was increased by 47% (FIGS. 11 and 12).

SMILES: N=C(N)NCCCS(=O)(=O)Nc1ccc(Nc2c3ccccc3nc3cc([N+](=O)[O-])ccc23)cc1 [GTC365]
- viability change [1]: minimal viability change; also recorded: minimal reduction
- increase of initial folding rate (G124A 5-12 G-quadruplex): 0.049 s⁻¹
- change in Tm of the i-motif [2]: little change in Tm
- increase of BAX/BCL2 ratio (BAX/BCL2 mRNA ratio): over 2 fold
